pEC50: −log10 of the molar value.
Key:
HTR3A (5-HT3A) = target: T1, HTR3A (5-HT3A) (Homo sapiens, UniProt P46098); test: Ion channel assay (FLIPR membrane potential), opener; type: cell-based
T1 sequence (P46098 24-478): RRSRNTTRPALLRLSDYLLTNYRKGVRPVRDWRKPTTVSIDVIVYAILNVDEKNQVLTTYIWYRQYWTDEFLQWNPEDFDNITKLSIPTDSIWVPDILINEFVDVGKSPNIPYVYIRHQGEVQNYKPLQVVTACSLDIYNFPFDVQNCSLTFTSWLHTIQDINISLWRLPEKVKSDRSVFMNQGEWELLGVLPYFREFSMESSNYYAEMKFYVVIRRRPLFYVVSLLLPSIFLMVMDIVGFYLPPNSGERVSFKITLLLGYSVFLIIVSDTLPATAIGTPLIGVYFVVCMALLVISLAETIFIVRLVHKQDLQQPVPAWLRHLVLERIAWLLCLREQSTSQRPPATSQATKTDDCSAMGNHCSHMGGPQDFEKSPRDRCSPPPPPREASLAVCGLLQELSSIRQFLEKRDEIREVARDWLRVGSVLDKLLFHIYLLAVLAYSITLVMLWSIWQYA

[1] = Dosing solution concentration by LC-MS (measured vs nominal); type: physicochemical; details: C(IV) nominal 0.1 mg/mL
Description: Briefly, the procedure was as follows. […] 19, 2022.
Pharmacokinetic (PK) evaluations were performed in the same manner as described in Example 1, except compound C(IV) was used in place of compound C(V). […] Thus, only psilocin PK analysis was performed. […] Table 46 summarizes these “measured” concentrations along with corresponding “nominal” concentrations for each dosing solution. Results for psilocin PK following C(IV) administration are found in Tables 47A-47B (0.293 mg/kg IV dose), Tables 48A-48B (0.275 mg/kg oral dose), Tables 49A-49B (0.789 mg/kg oral dose), Tables 50A-50B (2.52 mg/kg oral dose), Table 51 (comparative summary for IV data), Table 52 (comparative summary for oral data), Table 53A (psilocin exposure) and FIGS. 10H (i) and 10H (ii).

Compound	pEC50 (HTR3A (5-HT3A))	Psilocin, measured, in C(IV) residual dosing solution [1] [mg/mL]
CN(C)CCc1c[nH]c2cccc(OC(=O)c3ccc(Br)cc3)c12 [C(I)]	< 4.00	
CN(C)CCc1c[nH]c2cccc(OC(=O)CC3CC3)c12 [C(IV)]	< 4.00	0.00174
COc1ccc(C(=O)Oc2cccc3[nH]cc(CCN(C)C)c23)cc1 [C(V)]	< 4.00	
CN(C)CCc1c[nH]c2cccc(OC(=O)c3c(F)c(F)c(F)c(F)c3F)c12 [C(VI)]	< 4.00	
CN(C)CCc1c[nH]c2cccc(OC(=O)c3cccc4c3OCCO4)c12 [C(XX)]	< 4.00	

Reference: patent US11746087B1, “C4-carboxylic acid-substituted tryptamine derivatives and methods of using” (priority 2022, dated 2023)
